Results on 3 compounds are retold here after patent US11987555B2, “Malassezin and analogs thereof as skin brightening agents” (Versicolor Technologies, LLC, priority 2016, dated 2024).

Read-outs that look alike come from different tables or passages of the source.

Data set [1] relates to MeWo cells. Nature of the data set: CellTiter-Glo cell viability assay. The following applies: doses 100, 10, 1 μM, 6-72 hours. Format: cell-based. The procedure: (§1) CellTiter-Glo® 2.0 assay was purchased from Promega.
(§2) CellTiter-Glo® reagents were thawed and equilibrated to room temperature before the experiment. 40 μL of CellTiter-Glo® reagent was then added to each well for detection (at 1:1 ratio to culture medium). The plates were then incubated at room temperature for 30 minutes and read using EnSpire (PerkinElmer) plate reader. The remaining activity was calculated according to the following formula: Remaining Activity (%)=100%×(Lumsample−Lumbkg)/(Lumvehicle−Lumbkg).

Data set [2] concerns WM115 cells. The data set is described as follows: CellTiter-Glo cell viability assay. Format: cell-based. To be noted: doses 100, 10, 1 μM, 6-72 hours. The procedure:
as §1, §2

The test system of data set [3] is MeWo cells. Nature of the data set: Additional annexin V assay (3 doses, 6-72 hours). The class given is cell-based. The following applies: 6 hours, doses 100, 10, 1 μM. The procedure:
(§3) To further investigate the impact of test compounds on apoptosis, multiple readouts, covering different stages of apoptosis, were carried out on both MeWo and WM115 cells. Both cell types were treated with test compounds at 3 doses (100 μM, 10 μM, and 1 μM). Staurosporine was used as a positive control. […] The test compounds evaluated were CV-8684, CV-8685, and CV-8688.
(§4) Cell seeding was performed as discussed above with the following exceptions: the final cell density was 4,000 cells/well for 6-hour and 24-hour detections, whereas 2,000 cells/well were used for 48-hour and 72-hour detections. For each time point, 384-well clear bottom plates (Corning 3712) and solid white bottom plates (Corning 3570) were prepared. The plates were incubated as discussed above.
(§5) For preparation of the compound source plate, each test compound was dissolved in DMSO to 10 mM stock. Two additional concentrations were generations by 10-fold dilution to 1 mM and 0.1 mM. Staurosporine was used as positive control and 1% DMSO was employed as vehicle (negative) control. The compound source plate was spun at room temperature at 1,000 RPM for 1 minute and agitated using a plate shaker for 2 minutes.
(§6) 400 nL of test compound was transferred from the compound source plate to 384-well culture plates using Echo550 liquid handler. After 6, 24, 48, and 72 hours, the plates were removed from the incubator for detections.
(§7) Culture media was removed and cells were washed twice with PBS. 20 μL of pre-mixed annexin V-FITC working solution was added to each well. The cells were incubated at room temperature for 20 minutes. Plates were read using Acumen eX3 to count the number of FITC-positive cells.

Data set [4] deals with WM115 cells. Nature of the data set: Additional annexin V assay (3 doses, 6-72 hours). Format: cell-based. To be noted: 6 hours, doses 100, 10, 1 μM. The procedure:
as §3, §4, §5, §6, §7

For data set [5], the system named is MeWo cells. Nature of the data set: Preliminary annexin V assay. The class given is cell-based. To be noted: 6-hour treatment, preliminary screen. The source says:
(§8) MeWo (ATCC® HTB-65™) and WM115 (ATCC® CRL-1675) cells were purchased from ATCC (Manassas, VA) and maintained in the following: for MeWo: DMEM supplemented with 10% FBS; for WM115: RPMI 1640 supplemented with 10% FBS (10% FBS, 1% stabilized antibiotic anti-mycotic solution).
(§9) In the […] stages of apoptosis, phosphatidylserine (“PS”) is translocated from the inner to the outer leaflet of the cell membrane, exposing PS to the extracellular environment, where it can be detected. Highly fluorescent annexin V conjugates provide quick and reliable detection methods for studying the externalization of PS.
(§10) During the first set of studies, both MeWo and WM115 cells were treated with test compounds at 10 doses starting from 100 μM with 3-fold dilution. Staurosporine was used as positive control. After 6-hour treatment, cell apoptosis was assessed using an annexin V assay. The test compounds evaluated were CV-8684, CV-8685, CV-8686, CV-8687, and CV-8688.
(§11) For cell seeding, cells were harvested and the cell number was determined using Countess® cell counter. Cells were then diluted with culture medium to the desired density. 40 μL of cell suspension per well was added to the required number of wells in a 384-well plate (Corning 3712—clear bottom plate). The final cell density was 6,000 cells/well. After plating, the plates were incubated at 37° C. and 5% CO2 overnight.
(§12) For preparation of compound source plate, each test compound was dissolved in DMSO to 10 mM stock. 3-fold serial dilution was performed using an EVO200™ liquid handler (TECAN) to generate ten concentrations of test compound. 0.1% DMSO was employed as vehicle (negative) control. The compound source plate was then spun at room temperature at 1,000 RPM for 1 minute and agitated using a plate shaker for 2 minutes.
(§13) For compound treatment, 40 nL of compound were transferred from the compound source plate to the 384-well culture plate using liquid handler Echo550 (LabCyte Inc.). After 6-hour incubation, the plates were removed from the incubator for detection.
(§14) For the preliminary annexin V assay, the plates were removed from the incubator and allowed to equilibrate at room temperature for 15 minutes. Culture media was then removed. 20 μL of pre-mixed annexin V-FITC and Hoechst33342 dye working solution were added to each well. The cells were then incubated at room temperature for 20 minutes. The plates were sealed and centrifuged for 1 minute at 1,000 RPM to remove bubbles. Afterward, the plate was read using an Acumen eX3 plate reader.

Data set [6] deals with MeWo cells. The data set is described as follows: Cell morphology after treatment (micrographs). The class given is cell-based. The following applies: 100 μM of test compound, 6 hours. The procedure:
FIGS. 5A-5K are micrographs showing MeWo cell morphology after 6 hours of treatment with various concentrations of CV-8684, CV-8685, CV-8688, DMSO, and staurosporine.
(§15) Typical cell morphology after various treatments is shown in FIGS. 5A-5K, 6A-6K, 7A-7K, 8A-8K, 9A-9K, 10A-10K, 11A-11K, and 12A-12K.

Data set [7] relates to WM115 cells. The data set is described as follows: Cell morphology after treatment (micrographs). The following applies: 100 μM of test compound, 6 hours. The class given is cell-based. The procedure:
FIGS. 9A-9K are micrographs showing WM115 cell morphology after 6 hours of treatment with various concentrations of CV-8684, CV-8685, CV-8688, DMSO, and staurosporine.
as §15

For the next data set, the system named is MelanoDerm™ Skin Model. The data set is described as follows: MelanoDerm assay, visual pigmentation. The following applies: day 7; 200 μM and 50 μM, topical every 48 hours. Format: cell-based, human. The procedure: FIGS. 16A-16K are photographs of MelanoDerm™ matrices at either day 0 or day 7 after exposure to no treatment (FIG. 16A), sterile deionized water (FIG. 16B), 1% kojic acid (FIG. 16C), 0.2% DMSO (FIG. 16D), 0.05% DMSO (FIG. 16E), 200 μM CV-8684 (FIG. 16F), 50 μM CV-8684 (FIG. 16G), 200 μM CV-8686 (FIG. 16H), 50 μM CV-8686 (FIG. 16I), 200 μM CV-8688 (FIG. 16J), and 50 μM CV-8688 (FIG. 16K).
The MelanoDerm™ Skin Model provided by MatTek Corporation (Ashland, MA) will be used in this study. The MelanoDerm™ tissue consists of normal, human-derived epidermal keratinocytes (NHEKs) and melanocytes (NHMs) which have been cultured to form a multilayered, highly differentiated model of the human epidermis. The NHMs within co-cultures undergo spontaneous melanogenesis leading to tissues of varying levels of pigmentation. The cultures are grown on cell culture inserts at the air-liquid interface, allowing for topical application of skin modulators. […]
At the end of the 7-day trial, the MelanoDerm™ tissues dosed with the negative or positive control, and with each test article will be photographed using a digital camera to aid in the visual assessment of the degree of pigmentation of the tissues at the end of the assay (Day 7). […] Then, the viability of the tissues will be determined by MTT reduction as indicated below.

Data set [8] can be described thus: CellTiter-Glo cell viability assay. Format: cell-based. To be noted: human, after 24-hour treatment, read-out: inhibition of cell viability. The procedure:
as §1, §2

Data set [9] concerns WM115 cells. Nature of the data set: Preliminary annexin V assay. Format: cell-based. The following applies: 6-hour treatment, preliminary screen.
Excerpt: as §8, §9, §10, §11, §12, §13, §14

Data set [10] deals with T1, arylhydrocarbon receptor (AhR) (Homo sapiens, UniProt P35869).
T1 sequence (P35869 11-848): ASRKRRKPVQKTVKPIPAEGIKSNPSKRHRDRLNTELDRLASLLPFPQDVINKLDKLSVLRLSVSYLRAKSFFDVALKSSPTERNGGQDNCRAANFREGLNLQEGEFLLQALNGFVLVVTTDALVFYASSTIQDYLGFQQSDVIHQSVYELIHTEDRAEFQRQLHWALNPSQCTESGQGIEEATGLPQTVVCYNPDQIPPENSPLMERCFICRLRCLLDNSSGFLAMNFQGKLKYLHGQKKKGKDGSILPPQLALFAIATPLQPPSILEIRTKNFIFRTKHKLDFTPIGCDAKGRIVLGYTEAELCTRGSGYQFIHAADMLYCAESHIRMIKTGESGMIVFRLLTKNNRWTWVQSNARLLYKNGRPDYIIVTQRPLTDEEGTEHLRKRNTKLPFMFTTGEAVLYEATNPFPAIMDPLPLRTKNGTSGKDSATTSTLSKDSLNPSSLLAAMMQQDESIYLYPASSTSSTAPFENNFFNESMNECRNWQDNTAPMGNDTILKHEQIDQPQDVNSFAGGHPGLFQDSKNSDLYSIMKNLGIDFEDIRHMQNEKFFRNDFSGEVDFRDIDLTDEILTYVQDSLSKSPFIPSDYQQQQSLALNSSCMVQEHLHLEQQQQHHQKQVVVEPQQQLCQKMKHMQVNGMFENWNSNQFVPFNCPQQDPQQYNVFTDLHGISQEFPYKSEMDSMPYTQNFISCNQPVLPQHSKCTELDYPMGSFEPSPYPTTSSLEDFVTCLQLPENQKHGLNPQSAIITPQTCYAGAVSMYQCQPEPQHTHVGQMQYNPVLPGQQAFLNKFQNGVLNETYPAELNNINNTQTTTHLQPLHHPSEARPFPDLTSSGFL
To be noted: Wille et al., 2001; cited from earlier work.

Data set [11] has as its system WM115 cells. Nature of the data set: Lactate dehydrogenase (LDH) release assay. The following applies: after 72-hour incubation.
Experimental: (§16) The LDH assay quantitatively measures lactate dehydrogenase (“LDH”) released into the media from damaged cells as a biomarker for cytotoxicity and cytolysis.
(§17) CytoTox-ONE™ Homogenous Membrane Integrity Assay was purchased from Promega.
(§18) For the LDH release assay, plates were removed from the incubator and equilibrated at room temperature for 15 minutes. Plates were then centrifuged at 1,000 RPM for 1 minute. 20 μL of cell culture medium was transferred into a new 384-well black solid plate. Then, 20 μL of CytoTOX-ONE™was added into each well and incubated at room temperature for 10 minutes. Afterward, 10 μL of stop solution were added to each well, and the plates were agitated at 500 rpm for 1 minute. Plates were read using an excitation wavelength of 560 nm and an emission wavelength of 590 nm on EnSpire. The relative activity was calculated according to the following formula: Relative Activity (%)=100%×(Lumsample−Lumbkg)/(Lumvehicle−Lumbkg).
Data set [12] concerns primary human melanocytes. To be noted: Krämer, et al., 2005; cited from earlier work.
The subject of data set [13] is MeWo cells. Nature of the data set: Lactate dehydrogenase (LDH) release assay. The following applies: after 72-hour incubation.
Experimental: as §16, §17, §18

With `CC(c1[nH]c2ccccc2c1C=O)c1c[nH]c2ccccc12` (centres unmarked) [CV-8688], the “inhibition of cell viability” value in the data set with MeWo cells [1] and with WM115 cells [2] was “inhibited viability of both cell types in a dose-dependent manner” in each case. The “apoptosis induction (annexin V)” value with MeWo cells [3] and with WM115 cells [4] was “showed the induction effect within 6 hours of treatment in a dose-dependent manner” throughout. In the data set with MeWo cells [5], the “annexin V staining” value was “markedly increased”. In the data set with MeWo cells [5] (read-out: EC50 of annexin V staining), the EC50 (in general, the concentration needed to bring the measured effect to its halfway point) stood at 909 nM. For the same compound, the cell morphology entry in the data set with MeWo cells [6] and with WM115 cells [7] was “significantly affected” each time. Also, the “pigmentation of MelanoDerm tissues” value with MelanoDerm™ Skin Model was “reduced pigmentation”.

With `CN[C@@H]1C[C@H]2O[C@@](C)([C@@H]1OC)n1c3ccccc3c3c4c(c5c6ccccc6n2c5c31)C(=O)NC4` [Staurosporine, reference compound], the cytotoxicity at 24 h in data set [8] (MeWo) and in data set [8] (WM115) was 100% each time. The “annexin V staining” value in the data set with MeWo cells [5] and in the data set with WM115 cells [9] was “greatly increased” throughout. The cell morphology result in the data set on MeWo cells [6] and in the data set on WM115 cells [7] was “significantly affected” throughout.

Turning to `O=Cc1c(Cc2c[nH]c3ccccc23)[nH]c2ccccc12` [CV-8684, 2-(1H-indol-3-ylmethyl)-1H-indole-3-carbaldehyde], the “inhibition of cell viability” value in the data set on MeWo cells [1] and in the data set with WM115 cells [2] was “dose-dependent inhibition of cell viability” in each case. Further, the “apoptosis induction (annexin V)” value in the data set on MeWo cells [3] and with WM115 cells [4] was “induced apoptosis at the highest concentration tested” throughout. The AhR agonist activity entry in data set [10] is listed as “known agonist”. Also, the LDH release entry in the data set on WM115 cells [11] and with MeWo cells [13] was “did not induce significant release” in each case. The cell morphology result in the data set on MeWo cells [6] and with WM115 cells [7] was “significantly affected” throughout. The “pigmentation of MelanoDerm tissues” value in the data set with MelanoDerm™ Skin Model is “reduced pigmentation”. Besides, the apoptosis induction entry in data set [12] is “induces apoptosis”.
